The values below come from patent US20240261315A1 (Omikron Italia S.r.l., priority 2021, published 2024).

Data set [1] has as its system patients affected by open-angle glaucoma. In words: Clinical observation: visual field testing by automatic perimetry (MD). Particulars: for change in MD: 6 months, vs baseline or not treated group; for MD: after 6 months of treatment, in addition to hypotensive therapy, 3 patients. In kind it is in vivo, human. As to the method: 12 randomized patients were included in 4 groups: • CIT. GROUP-3 patients treated with citicoline in oral solution 10 ml/die corresponding to 500 mg/die of citicoline, in addition to the hypotensive therapy; • NIC. […] The patients were treated and followed for 6 months. At baseline and after 6 months of treatment complete eye examination including visual acuity, control of the intraocular pressure (IOP) with Goldmann tonometry (GAT); visual field testing, electro-functional and morphological examination were performed. (1) The visual field testing was performed with automatic perimetry (HFA, Sita Standard 24-2 protocol; Zeiss, San Leandro, CA, USA). Such analysis represents the gold standard for diagnosis and follow-up of the glaucomatous patient and allows to represent graphically the extension in the space of the visual capability, by measuring even the peripheral vison thereof. Two analyses on each examination were performed and the second test was considered for the analysis. To perform the test, the patients were positioned in front of the instrument. After having rested forehead and chin inside the dome, with the covered unexamined eye, they started to fix a central target and pressed a button whenever they perceived against themselves aluminous stimulus, even if with poor intensity. MD was considered as perimetric index.

Data set [2] shares this test system. In words: Clinical observation in open-angle glaucoma patients: intraocular pressure (Goldmann tonometry). Particulars: after 6 months of treatment, in addition to hypotensive therapy, 3 patients. The class given is in vivo, human. How it is done: 12 randomized patients were included in 4 groups: • CIT. GROUP-3 patients treated with citicoline in oral solution 10 ml/die corresponding to 500 mg/die of citicoline, in addition to the hypotensive therapy; • NIC. […] The patients were treated and followed for 6 months. At baseline and after 6 months of treatment complete eye examination including visual acuity, control of the intraocular pressure (IOP) with Goldmann tonometry (GAT); visual field testing, electro-functional and morphological examination were performed.

The next data set relates to synaptophysin. Nature of the data set: Synaptophysin quantification by immunofluorescence in retina of db/db mice. In kind it is in vivo. The conditions noted are these: vs placebo and healthy control. The text has this: (§1) The db/db mice have a mutation in the leptin receptor gene and they are an animal model of retinal neurodegeneration. Such model is useful to mime the pathophysiological events which are found in neurodegenerative pathologies such as glaucoma.
(§2) 20 db/db […] (BKS.Cg-+Leprdb/+Leprdb/OlaHsd, males, 10 weeks) were randomized in 5 groups and treated for 15 days by oral route with oral solutions based on: • 1. Citicoline 0.5% (Cit.) in 10% lactose solution administered with nasogastric tube (SNG); • 2. […] 10% lactose solution (Placebo) administered with SNG; • 5. Healthy, non-diabetic control (Control).
(v) The quantification of caspase-3 and of synaptophysin was performed by means of immunofluorescence. The sections were fixed in methanol (20° C.) for 1 min and washed with buffered saline solution (PBS) 0.01 M at pH 7.4. Then, the sections were incubated in 10% solution NGS, 0.1% Triton X-100, PBS for 1 hour at room environment and subsequently incubated with a specific primary antibody (respectively anti-caspase-3 and anti-synaptophysin monoclonal antibody of rabbit) one night at 4° C. […] Five fields (three corresponding to the central retina and two to the peripheral one) were analysed. The fluorescence intensity of images was quantified with software ImageJ.

Data set [3] has as its system layer of the RNFL nerve fibres. Nature of the data set: Clinical observation: RNFL thickness by SD-OCT. The conditions noted are these: after 6 months of treatment, in addition to hypotensive therapy, 3 patients. In kind it is in vivo, human. How it is done: 12 randomized patients were included in 4 groups: • CIT. GROUP-3 patients treated with citicoline in oral solution 10 ml/die corresponding to 500 mg/die of citicoline, in addition to the hypotensive therapy; • NIC. […] The patients were treated and followed for 6 months. At baseline and after 6 months of treatment complete eye examination including visual acuity, control of the intraocular pressure (IOP) with Goldmann tonometry (GAT); visual field testing, electro-functional and morphological examination were performed. (3) The evaluation of the thickness of the layer of the RNFL nerve fibres was performed with spectral-domain optical coherence tomography SD-OCT (RTVue Model-RT100 version 3.5; Optovue Inc, Fremont, CA, USA). Such analysis allows a tomographic survey of retina capable of highlighting, through high-resolution cross sections, structural details of the cellular layers and of their plexuses and allows a qualitative and quantitative analysis of the retinal alterations. The patients were positioned in front of the instrument and invited to observe a luminous target: the instrument, once the ocular structure to be analysed is focused, performs the scanning.

A further data set has as its system db/db mice. Nature of the data set: Full field electroretinogram (ffERG) in db/db mice. The class given is in vivo. The conditions noted are these: stimuli 10 and 40 cd s/m2, vs Placebo.
Description: as §1, §2
Through (ii) full field Electroretinogram (ffERG) the electrical activity and then the functionality of the retinal cells were evaluated. The recordings were measured by using ERG platform of Ganzfeld (Phoenix Research Laboratories, Pleasanton, CA, USA) and according to the recommendations of ISCEV (International Society for Clinical Electrophysiology of Vision).

Data set [4] concerns glial fibrillary acidic protein GFAP. In words: Glial activation, GFAP immunohistochemistry score in db/db mice. The class given is in vivo.
Description: as §1
[…] Citicoline 0.5% (Cit.) in 10% lactose solution administered with nasogastric tube (SNG); • 2. […] 10% lactose solution (Placebo) administered with SNG; • 5. Healthy, non-diabetic control (Control).
Through immunohistochemical assays, neurodegeneration histological markers were researched (glial activation and apoptosis):
(iii) The glial activation was evaluated by means of confocal laser scanning microscopy by using antibodies directed to the glial fibrillary acidic protein GFAP (anti-GFAP of rabbit). To evaluate the level of glial activation a scoring system (from 1 to 5) was used based upon the extension of GFAP (glial fibrillary acidic protein) colouring.
The sections were fixed in methanol (−20° C.) for 2 minutes, followed by three washing with saline phosphate buffer PBS (5 minutes each one). The sections were treated with Tris Saline Buffer TBS-Triton X-100 (0.025%) and incubated in a 1% solution of bovine albumin serum BSA and 10% goat serum in PBS for 2 hours at room temperature. The sections were then incubated with anti-GFAP of rabbit overnight at 4° C. in humid atmosphere. After three washing in PBS, 5 minutes each one, the sections were incubated with the secondary antibody Alexa AF488 goat-anti-rabbit (dilution 1:200 prepared in blocking solution). The sections were washed in PBS, coloured with Hoestch and assembled with means Flourescence Mounting Medium with a cover glass. Once the mounting support has dried up, comparative digital images of the samples were recorded with a confocal laser scanning microscope Fluoview FV 1000 Olympus (Olympus, Shinjuku, Tokyo, Japan) by using identical brightness and contrast settings.

For the compound `NC(=O)c1cccnc1` [Nicotinamide], in data set [1], the “change in MD” value was “lower reduction in the MD value with respect to the not treated group” and the MD was −8.92 (±2.6)*^. The IOP in data set [2] is given as 14.0 (±2.3)^. Besides, in the data set on synaptophysin, the levels of synaptophysin entry is recorded as “statistically significant increase in the levels of synaptophysin”. Moreover, the RNFL-TO in data set [3] was 61.1 (±12.5). In the data set with db/db mice, the “reduction in the width of wave b at ERG” value was “attenuated with respect to Placebo”. Also, in data set [4], the “GFAP score 1, share of mice” value amounted to 72%; the “GFAP score 2, share of mice” value is given as 18%; the “GFAP score 3, share of mice” value came to 10%; the “GFAP score 4, share of mice” value was 0%. The “GFAP score 5, share of mice” value in data set [4] is listed as 0%.

As to `C[N+](C)(C)CCOP(=O)([O-])OP(=O)(O)OC[C@H]1O[C@@H](n2ccc(N)nc2=O)C(O)C1O` (stereo partly shown) [Citicoline, citidin-5′-difosfocholine], in data set [1], the “change in MD” value is given as “significant improvement in MD with respect to the baseline” and the MD is −8.70 (±2.8). In addition, the IOP in data set [2] was 13.8 (±1.8). In addition, in the data set on synaptophysin, the levels of synaptophysin result is reported as “statistically significant increase in the levels of synaptophysin”. Further, the RNFL-TO in data set [3] is on record as 65.0 (±12.0). Further, the “reduction in the width of wave b at ERG” value in the data set on db/db mice is recorded as “attenuated with respect to Placebo”. Also, in data set [4], the “GFAP score 1, share of mice” value was 71%; the “GFAP score 2, share of mice” value is on record as 22%; the “GFAP score 3, share of mice” value stood at 7%; the “GFAP score 4, share of mice” value was determined as 0%. In data set [4], the “GFAP score 5, share of mice” value is 0%.
